Laboratory results published in patent US20080253978A1, “Derivatives of Pyrrolyltriazine Together with Methods for Obtaining Them and Their Use as Protecting Agents Uv Radiation” (ISDIN, S.A., priority 2005, published 2008).
Several values for one entry are separate records, joined by “and”; a condition that tells them apart may be missing. Equal entries are not always repeated. One block for each compound: values may come before it.

What was measured:
[1] = UV absorption (λmax, εmax) in solution; type: physicochemical

UV λmax ([1]; CHCl3/MeOH): 327 nm | εmax ([1]; CHCl3/MeOH): 100000 M^1 cm^−1
Compound: c1ccc(Cn2cccc2-c2nc(Nc3ccc(-c4nc5ccccc5[nH]4)cc3)nc(Nc3ccc(-c4nc5ccccc5[nH]4)cc3)n2)cc1 [Example 11, 2-(1-benzyl-1H-pyrrol-2-yl)-4,6-bis[4-(1H-benzo[d]imidazol-2-yl)phenylamino]-1,3,5-triazine]

melting point: 140 to 142 °C | UV λmax ([1]; ethanol): 292 nm | εmax ([1]; ethanol): 77000 M⁻¹ cm⁻¹
Compound: O=C1c2ccccc2-c2cc(Nc3nc(Nc4ccc5c(c4)-c4ccccc4C5=O)nc(-c4cccn4Cc4ccccc4)n3)ccc21 [Example 5, 2-(1-benzyl-1H-pyrrol-2-yl)-4,6-bis(9-oxo-9H-fluoren-3-ylamino)-1,3,5-triazine]

UV λmax ([1]; ethanol): 332 nm | εmax ([1]; ethanol): 71000 M⁻¹ cm⁻¹
Compound: c1ccc(Cn2cccc2-c2nc(Nc3ccc(-c4cn5ccccc5n4)cc3)nc(Nc3ccc(-c4cn5ccccc5n4)cc3)n2)cc1 [Example 6, 2-(1-benzyl-1H-pyrrol-2-yl)-4,6-bis[4-(imidazo[1,2-a]pyridin-2-yl)phenylamino]-1,3,5-triazine]

UV λmax ([1]; CHCl3/MeOH): 315 nm | εmax ([1]; CHCl3/MeOH): 76000 M⁻¹ cm⁻¹
Compound: CCCCC(CC)COC(=O)c1ccc(Nc2nc(Nc3ccc(C(=O)OCC(CC)CCCC)cc3)nc(-c3cccn3Cc3ccccc3)n2)cc1 (stereo not drawn) [Example 9, 2-(1-benzyl-1H-pyrrol-2-yl)-4,6-bis[4-((2-ethylhexyloxy)carbonyl)phenylamino]-1,3,5-triazine]

UV λmax ([1]; MeOH): 263 nm and 308 nm | εmax ([1]; MeOH, at λmax=263 nm): 54000 M⁻¹ cm⁻¹ | εmax ([1]; MeOH, at λmax=308 nm): 52000 M⁻¹ cm⁻¹
Compound: c1ccc(Cn2cccc2-c2nc(Nc3ccc4ccccc4c3)nc(Nc3ccc4ccccc4c3)n2)cc1 [Example 13, 2-(1-benzyl-1H-pyrrol-2-yl)-4,6-bis[naphthalen-2-ylamino]-1,3,5-triazine]

melting point: 66 to 68 °C | εmax ([1]; chloroform): 66000 M⁻¹ cm⁻¹ | λmax ([1]; chloroform): 350-352 nm
Compound: CCCCC(CC)COc1ccc(-c2nc(-c3ccc(OCC(CC)CCCC)cc3O)nc(-c3cccn3Cc3ccccc3)n2)c(O)c1 (stereo not drawn) [Example 1, 2-(1-benzyl-1H-pyrrol-2-yl)-4,6-bis[4-(2-ethylhexyloxy)-2-hydroxyphenyl]-1,3,5-triazine]

Further lines, the compound ahead of its results:

Compound: c1ccc(Cn2cccc2-c2nc(Nc3ccc(-n4cccn4)cc3)nc(Nc3ccc(-n4cccn4)cc3)n2)cc1 [Example 12, 2-(1-benzyl-1H-pyrrol-2-yl)-4,6-bis[4-(1H-pyrazol-1-yl)phenylamino]-1,3,5-triazine]
UV λmax ([1]; MeOH): 307 nm | εmax ([1]; MeOH): 67000 M⁻¹ cm⁻¹

Compound: Oc1ccc(-c2nc(-c3ccc(O)cc3O)nc(-c3cccn3Cc3ccccc3)n2)c(O)c1 [Example 1 b), 2-(1-benzyl-1H-pyrrol-2-yl)-4,6-bis(2,4-dihydroxyphenyl)-1,3,5-triazine]
melting point: > 275 °C

Compound: c1ccc(Cn2cccc2-c2nc(Nc3ccc(-c4ccccc4)cc3)nc(Nc3ccc(-c4ccccc4)cc3)n2)cc1 [Example 3, 2-(1-benzyl-1H-pyrrol-2-yl)-4,6-bis(biphenyl-4-ylamino)-1,3,5-triazine]
melting point: 185 to 186 °C | UV λmax ([1]; ethanol): 309 nm | εmax ([1]; ethanol): 73000 M⁻¹ cm⁻¹

Compound: C(=C\c1ccc(Nc2nc(Nc3ccc(/C=C/c4ccccc4)cc3)nc(-c3cccn3Cc3ccccc3)n2)cc1)/c1ccccc1 [Example 15, 2-(1-benzyl-1H-pyrrol-2-yl)-4,6-bis[4-(E)-styrylphenylamino]-1,3,5-triazine]
UV λmax ([1]; CHCl3): 336 nm | εmax ([1]; CHCl3): 102000 M^1 cm^−1

Compound: CCOC(=O)/C=C/c1ccc(Nc2nc(Nc3ccc(/C=C/C(=O)OCC)cc3)nc(-c3cccn3Cc3ccccc3)n2)cc1 [Example 14, 2-(1-benzyl-1H-pyrrol-2-yl)-4,6-bis[4-((E)-3-ethoxy-3-oxoprop-1-enyl)phenylamino]-1,3,5-triazine]
UV λmax ([1]; MeOH): 336 nm | εmax ([1]; MeOH): 57000 M⁻¹ cm⁻¹

Compound: CCCCOC(=O)c1ccc(Nc2nc(Nc3ccc(C(=O)OCCCC)cc3)nc(-c3cccn3C(c3ccccc3)c3ccccc3)n2)cc1 [Example 7, 2-(1-benzydryl-1H-pyrrol-2-yl)-4,6-bis[4-(butoxycarbonyl)phenylamino]-1,3,5-triazine]
melting point: 80 to 82 °C | UV λmax ([1]; ethanol): 315 nm | εmax ([1]; ethanol): 81000 M⁻¹ cm⁻¹

Compound: CCCCOC(=O)c1ccc(Nc2nc(Nc3ccc(C(=O)OCCCC)cc3)nc(-c3cccn3Cc3ccccc3)n2)cc1 [Example 2, 2-(1-benzyl-1H-pyrrol-2-yl)-4,6-bis[4-(butoxycarbonyl)phenylamino]-1,3,5-triazine]
melting point: 173 to 174 °C | εmax ([1]; chloroform): 64000 M⁻¹ cm⁻¹ | λmax ([1]; chloroform): 312 nm

Compound: 2-(1-benzyl-1H-pyrrol-2-yl)-4,6-bis[4-(H-imidazo[1,2-a]pyridin-2-yl)phenylamino]-1,3,5-triazine [Example 10]
UV λmax ([1]; DMSO): 338 nm | εmax ([1]; DMSO): 55000 M⁻¹ cm⁻¹

Compound: O=C(c1ccccc1)c1ccc(Nc2nc(Nc3ccc(C(=O)c4ccccc4)cc3)nc(-c3cccn3Cc3ccccc3)n2)cc1 [Example 4, 2-(1-benzyl-1H-pyrrol-2-yl)-4,6-bis(4-benzoylphenylamino)-1,3,5-triazine]
melting point: 115 to 118 °C | UV λmax ([1]; ethanol): 330 nm | εmax ([1]; ethanol): 80000 M⁻¹ cm⁻¹
